The source of these data is patent US8399208B2, “Method and kit for the measurement of neutrophil cell activation” (Universite de Liege, priority 2004, dated 2013).

Assay [1] has as its system activated equine neutrophils. The assay is described as follows: Chemiluminescence response (lucigenin) of PMA-activated equine neutrophils. It counts as cell-based, horse. Particulars: for Inhibition percentage on chemiluminescence response of activated neutrophils: 10^-5 M, neutrophils activated with 8×10^-7 M PMA, lucigenin. As for the experimental part: (§1) Neutrophils isolated from citrated blood of healthy horses were counted, suspended in phosphate buffer saline (PBS) at pH 7.4 and incubated 10 min at 37° C. with curcumin or THC at the final concentration of 10^−4, 10^−5 or 10^−6 M. After incubation and centrifugation (1000×g, 10 min), the neutrophils were resuspended in PBS and either activated 30 min with 8×10^−7 M phorbol myristate acetate (PMA), with a simultaneous monitoring of the chemiluminescent response in presence of lucigenin (5×10^-8 M), or activated in the same conditions followed by centrifugation and MPO measurement in the supernatant. MPO, marker of neutrophil degranulation, was measured by a specific ELISA assay raised against equine MPO. The effect of polyphenols on MPO activity was tested by SIEFED (“Specific Immunological Extraction Followed by Enzymatic Detection”) method that allows the study of drug interaction with the enzyme without reaction medium interferences.

The next assay deals with equine MPO. The assay is described as follows: MPO activity by SIEFED (specific immunological extraction followed by enzymatic detection). It counts as biochemical, horse. Particulars: for Effect on MPO activity (in words): SIEFED, polyphenol incubated with MPO, then capture, washing, enzymatic detection. As for the experimental part: FIG. 17 represents the inhibitory effect of curcumin on MPO activity. Concentration of MPO used: 9 ng/ml. The incubation time of curcumin with MPO before assay by SIEFED was 30 min. (The most concentrated curcumin solution was prepared in ethanol (175 mM) and dilutions of this concentrated solution were performed with PBS buffer).
As for the ELISA test, the primary antibody, that captures MPO, is rabbit IgG (3 μg/ml). Standard MPO or unknown sample is incubated 2 h at 37° C. After washing, the peroxidase activity of MPO is detected by adding 100 μl of a 10 μM H2O2 solution and 40 μM of Amplex® Red (10-acetyl-3,7-dihydroxyphenoxazine; Molecular Probes) in phosphate buffer (50 mM, pH 7.5). After incubation in the darkness (30 min, 37° C.), the fluorescence is read at 590 nm with a Fluoroskan Ascent apparatus (Labsystems). The volumes of the primary antibody and the sample put in the wells, are 200 μl. Controls (blank) and dilutions of the samples are established with dilution buffer.
as §1
The SIEFED was applied to study the effects of two natural polyphenols (curcumin and resveratrol) on MPO activity.

The subject of assay [2] is activated equine neutrophils. The assay is described as follows: MPO release by PMA-activated neutrophils, MPO measured by ELISA in the supernatant. It is filed as cell-based, horse. Particulars: for Inhibitory percentage, MPO assay by ELISA in the supernatant after neutrophils activation with PMA (MPO release): drug concentration 10^-5 M. As for the experimental part:
FIG. 16 represents the inhibitory effect of curcumin on MPO release by neutrophils incubated in PBS buffer with or without stimulation with phorbol myristate acetate (PMA) (Curcumin (Curcu) was dissolved in ethanol. MPO was measured by ELISA in the supernatant of activated neutrophils).
The ELISA developed for MPO (1) measurement is further referred to as a MYELO-ELISA. Rabbit IgG, the primary antibody (2), is immobilized (coated) in excess (3 μg/ml) onto microtitration wells (3) (Cliniplate EB, Labsystem). Standard or test antigen (equine MPO (1)) is incubated overnight with the primary antibody (2) at 4° C. After washing (0.9% NaCl solution containing 0.1% tween 20), the immobilized antibody-antigen complex is incubated (2 h, 37° C.) with an excess (5 μg/ml) of guinea pig IgG, the secondary antibody (4). After washing, a third antibody (5) produced against guinea pig IgG is added. This third IgG (5) (goat IgG) is labelled with alkaline phosphatase (6) and recognizes the “sandwich” complex “primary antibody-MPO-secondary antibody”. After washing, phosphatase activity is detected by incubation (30 min, 37° C., in the darkness) with a paranitrophenyl phosphate solution (phosphatase substrate, Sigma). The reaction is stopped with NaOH and the absorbance (405 nm) is measured with a Multiscan Ascent apparatus (Labsystem) (7). All the volumes added into the wells comprise 100 μl, except for washing (300 μl) and for the substrate solution (200 μl). Controls (blank) and dilutions of the standard MPO and samples were established with dilution buffer [PBS (20 mM phosphate, 137 mM NaCl and 2.7 mM KCl pH 7.4) to which 5 g/L bovine serum albumin and 0.1% tween 20 was added]. The same ELISA technique was developed also for monoclonal antibodies as primary antibody.
as §1
For orientation: An ELISA detects its analyte on a solid surface through an enzyme-linked reagent.

For the compound `COc1cc(/C=C/C(=O)CC(=O)/C=C/c2ccc(O)c(OC)c2)ccc1O` [Curcumin], the “Effect on the chemiluminescence response of activated neutrophils (in words)” value in assay [1] (10^-4, 10^-5 or 10^-6 M) is listed as “dose dependent inhibitory effects”. For the same compound, the “Inhibition percentage on chemiluminescence response of activated neutrophils” value in assay [1] came out at 70%. Moreover, the “Effect on MPO activity (in words)” value in the assay on equine MPO is on record as “dose dependent inhibitory effects”; with equine MPO (listed as curcumin), “direct dose dependent inhibitory effect”. For the same compound, the “Inhibitory percentage, MPO activity (SIEFED)” value is listed as 96.2% with equine MPO (drug concentration 10^-4 M); 60.4% in the assay on equine MPO (drug concentration 10^-5 M); 60% with equine MPO (drug concentration 10^-5 M, listed as curcumin); 21.1% in the assay with equine MPO (drug concentration 10^-6 M). In assay [2] (10^-4, 10^-5 or 10^-6 M), the “Effect on the MPO release by activated neutrophils (in words)” value is recorded as “dose dependent inhibitory effects”. For the same compound, the results for the “Inhibitory percentage, MPO assay by ELISA in the supernatant after neutrophils activation with PMA” value in assay [2] (drug concentration 10^-4 M) and in assay [2] (drug concentration 10^-6 M) were 83.5% and 0%, respectively. Further, the results for the “Inhibitory percentage, MPO assay by ELISA in the supernatant after neutrophils activation with PMA (MPO release)” value in assay [2] and in assay [2] (listed as curcumin) were 43.6% and 44%, respectively.

Consider `Oc1ccc(C=Cc2cc(O)cc(O)c2)cc1` [resveratrol], for which the “Effect on MPO activity (in words)” value in the assay on equine MPO is on record as “direct dose dependent inhibitory effect”.

Regarding `COc1cc(CCC(=O)CC(=O)CCc2ccc(O)c(OC)c2)ccc1O` [tetrahydrocurcumin], the “Inhibition percentage on chemiluminescence response of activated neutrophils” value in assay [1] is 12%. Moreover, the “Inhibitory percentage, MPO assay by ELISA in the supernatant after neutrophils activation with PMA” value in assay [2] (drug concentration 10^-4 M) is 41%; in assay [2] (drug concentration 10^-6 M), 17%. For the same compound, the “Inhibitory percentage, MPO assay by ELISA in the supernatant after neutrophils activation with PMA (MPO release)” value in assay [2] stood at 18%.
